This passage reports IC50 results from patent publication US20210395239A1 (Hoffmann-La Roche Inc., priority 2018, published 2021).

The experiment deals with T1, hTLR9 (Homo sapiens, UniProt Q9NR96).
T1 sequence (Q9NR96 26-1032): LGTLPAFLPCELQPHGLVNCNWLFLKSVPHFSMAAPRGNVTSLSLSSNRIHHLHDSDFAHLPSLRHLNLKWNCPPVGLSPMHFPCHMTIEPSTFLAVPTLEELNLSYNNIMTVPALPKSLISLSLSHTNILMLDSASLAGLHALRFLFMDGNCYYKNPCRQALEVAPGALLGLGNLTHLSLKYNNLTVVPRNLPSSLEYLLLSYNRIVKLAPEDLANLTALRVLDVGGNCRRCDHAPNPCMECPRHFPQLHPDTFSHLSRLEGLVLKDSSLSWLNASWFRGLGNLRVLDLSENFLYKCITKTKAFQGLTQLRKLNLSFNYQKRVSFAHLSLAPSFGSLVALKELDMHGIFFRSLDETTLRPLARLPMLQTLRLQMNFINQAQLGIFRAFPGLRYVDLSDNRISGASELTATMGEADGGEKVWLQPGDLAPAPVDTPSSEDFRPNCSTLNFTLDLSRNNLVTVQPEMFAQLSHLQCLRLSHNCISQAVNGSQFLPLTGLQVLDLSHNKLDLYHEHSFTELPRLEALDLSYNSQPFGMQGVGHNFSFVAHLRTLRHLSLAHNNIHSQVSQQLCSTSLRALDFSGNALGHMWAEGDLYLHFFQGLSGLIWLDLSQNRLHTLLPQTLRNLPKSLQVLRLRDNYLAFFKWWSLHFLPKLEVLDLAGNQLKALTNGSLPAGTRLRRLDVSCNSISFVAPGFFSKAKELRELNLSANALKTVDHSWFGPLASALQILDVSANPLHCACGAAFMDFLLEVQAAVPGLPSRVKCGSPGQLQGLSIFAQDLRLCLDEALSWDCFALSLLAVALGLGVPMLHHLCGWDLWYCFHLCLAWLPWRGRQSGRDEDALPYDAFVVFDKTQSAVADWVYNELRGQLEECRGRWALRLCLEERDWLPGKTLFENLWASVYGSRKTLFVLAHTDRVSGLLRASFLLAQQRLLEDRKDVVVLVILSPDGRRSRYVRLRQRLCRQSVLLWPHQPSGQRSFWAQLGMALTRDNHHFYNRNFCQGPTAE
The experiment can be described thus: HEK293-Blue-hTLR-9 cells assay (SEAP reporter, ODN2006 stimulation). The class given is cell-based. The arrangement: host or cells: HEK293 (HEK-Blue hTLR9). As to conditions: HEK293-Blue-hTLR9 cells, ODN2006, 20 hrs; read-out: HEK/hTLR9 IC50. The source says:
HEK293-Blue-hTLR-9 Cells Assay:
A stable HEK293-Blue-hTLR-9 cell line was purchased from InvivoGen (Cat. #: hkb-htlr9, San Diego, Calif., USA). These cells were originally designed for studying the stimulation of human TLR9 by monitoring the activation of NF-κB. A SEAP (secreted embryonic alkaline phosphatase) reporter gene was placed under the control of the IFN-β minimal promoter fused to five NF-κB and AP-1-binding sites. The SEAP was induced by activating NF-κB and AP-1 via stimulating HEK-Blue hTLR9 cells with TLR9 ligands. Therefore the reporter expression was declined by TLR9 antagonist under the stimulation of a ligand, such as ODN2006 (Cat. #: tlrl-2006-1, Invivogen, San Diego, Calif., USA), for incubation of 20 hrs. The cell culture supernatant SEAP reporter activity was determined using QUANTI-Blue™ kit (Cat. #: rep-qb1, Invivogen, San Diego, Calif., USA) at a wavelength of 640 nm, a detection medium that turns purple or blue in the presence of alkaline phosphatase.
HEK293-Blue-hTLR9 cells were incubated at a density of 250,000˜450,000 cells/mL in a volume of 170 μL in a 96-well plate in Dulbecco's Modified Eagle's medium (DMEM) containing 4.5 g/L glucose, 50 U/mL penicillin, […], 2 mM L-glutamine, 10% (v/v) heat-inactivated fetal bovine serum with addition of 20 μL test compound in a serial dilution in the presence of final DMSO at 1% and 10 μL of 20 uM ODN2006 in above DMEM, perform incubation under 37° C. in a CO2 incubator for 20 hrs. Then 20 μL of the supernatant from each well was incubated with 180 μL Quanti-blue substrate solution at 37° C. for 2 h and the absorbance was read at 620-655 nm using a spectrophotometer. The signaling pathway that TLR9 activation leads to downstream NF-κB activation has been widely accepted, and therefore similar reporter assay was modified for evaluating TLR9 antagonist.
As to `CO[C@@H]1CN(c2cc(C)nc(N3CCN(C[C@H]4CN(c5ccc(C#N)c6nccnc56)C[C@@H](C)O4)CC3)n2)C[C@@H]1N` [Example 120, 8-[(2S,6R)-2-[[4-[4-[(3S,4R)-3-amino-4-methoxy-pyrrolidin-1-yl]-6-methyl-pyrimidin-2-yl]piperazin-1-yl]methyl]-6-methyl-morpholin-4-yl]quinoxaline-5-carbonitrile], the IC50 came to 31 nM.

Take `[2H]c1ccc2c(N3C[C@H](CN4CCN(c5nc(C)cc(N6C[C@H](OC)[C@@H](N)C6)n5)CC4)O[C@H](C)C3)ccc(C#N)c2n1` [Example 134, 5-[(2S,6R)-2-[[4-[4-[(3S,4S)-3-amino-4-methoxy-pyrrolidin-1-yl]-6-methyl-pyrimidin-2-yl]piperazin-1-yl]methyl]-6-methyl-morpholin-4-yl]-2-deuterio-quinoline-8-carbonitrile]: the IC50 is 48 nM.

Turning to `Cc1cnc(N2CCN(C[C@H]3CN(c4ccc(C#N)c5ncccc45)C[C@@H](C)O3)CC2)nc1N1CCNCC1` [Example 102, 5-[(2R,6S)-2-methyl-6-[[4-(5-methyl-4-piperazin-1-yl-pyrimidin-2-yl)piperazin-1-yl]methyl]morpholin-4-yl]quinoline-8-carbonitrile], the IC50 amounted to 80 nM.

As for `COc1cc(N2CCN(C[C@H]3CN(c4ccc(C#N)c5ncccc45)C[C@@H](C)O3)CC2)nc(N2CCNCC2)n1` [Example 91, 5-[(2S,6R)-2-[[4-(6-methoxy-2-piperazin-1-yl-pyrimidin-4-yl)piperazin-1-yl]methyl]-6-methyl-morpholin-4-yl]quinoline-8-carbonitrile], the IC50 came out at 102 nM.

As to `Cc1ccc(N2C[C@H](CN3CCN(c4ccnc(N5CCN[C@H](C)C5)n4)CC3)O[C@H](C)C2)c2nccnc12` [Example 128, (2R,6S)-2-methyl-6-[[4-[2-[(3R)-3-methylpiperazin-1-yl]pyrimidin-4-yl]piperazin-1-yl]methyl]-4-(8-methylquinoxalin-5-yl)morpholine], the IC50 was 182 nM.

As to `CO[C@H]1CN(c2nccc(N3CCN(C[C@H]4CN(c5ccc(C#N)c6nccnc56)C[C@@H](C)O4)CC3)n2)C[C@@H]1N` [Example 99, 8-[(2S,6R)-2-[[4-[2-[(3S,4S)-3-amino-4-methoxy-pyrrolidin-1-yl]pyrimidin-4-yl]piperazin-1-yl]methyl]-6-methyl-morpholin-4-yl]quinoxaline-5-carbonitrile], the IC50 was 63 nM.

On to `CO[C@@H]1CN(c2ccc(N3CCN(C[C@H]4CN(c5ccc(C#N)n6ncc(F)c56)C[C@@H](C)O4)CC3)cn2)C[C@H]1N` [Example 166, 4-[(2S,6R)-2-[[4-[6-[(3R,4R)-3-amino-4-methoxy-pyrrolidin-1-yl]-3-pyridyl]piperazin-1-yl]methyl]-6-methyl-morpholin-4-yl]-3-fluoro-pyrazolo[1,5-a]pyridine-7-carbonitrile], for which the IC50 worked out at 46 nM.

Turning to `[2H]c1ccc2c(N3C[C@H](CN4CCN(c5nc(C)cc(N6CC(C)(N)C6)n5)CC4)O[C@H](C)C3)ccc(C#N)c2n1` [Example 135, 5-[(2S,6R)-2-[[4-[4-(3-amino-3-methyl-azetidin-1-yl)-6-methyl-pyrimidin-2-yl]piperazin-1-yl]methyl]-6-methyl-morpholin-4-yl]-2-deuterio-quinoline-8-carbonitrile], the IC50 came to 56 nM.

With `C[C@@H]1CN(c2ccc(C#N)c3ncccc23)C[C@H](CN2CCN(c3ccnc(N4C[C@@H](F)[C@@H](N)C4)n3)CC2)O1` [Example 95, 5-[(2S,6R)-2-[[4-[2-[(3S,4R)-3-amino-4-fluoro-pyrrolidin-1-yl]pyrimidin-4-yl]piperazin-1-yl]methyl]-6-methyl-morpholin-4-yl]quinoline-8-carbonitrile], the IC50 was determined as 31 nM.

As to `[2H]c1ccc2c(N3C[C@H](CN4CCN(c5cnc(N6CC(C)(N)C6)cc5C)CC4)O[C@H](C)C3)ccc(C#N)c2n1` [Example 133, 5-[(2S,6R)-2-[[4-[6-(3-amino-3-methyl-azetidin-1-yl)-4-methyl-3-pyridyl]piperazin-1-yl]methyl]-6-methyl-morpholin-4-yl]-2-deuterio-quinoline-8-carbonitrile], the IC50 was 68 nM.

Regarding `C[C@@H]1CN(c2ccc(C#N)c3ncccc23)C[C@H](CN2CCN(c3ncc(F)c(N4CCNCC4)n3)CC2)O1` [Example 94, 5-[(2S,6R)-2-[[4-(5-fluoro-4-piperazin-1-yl-pyrimidin-2-yl)piperazin-1-yl]methyl]-6-methyl-morpholin-4-yl]quinoline-8-carbonitrile], the IC50 amounted to 51 nM.

Regarding `C[C@@H]1CN(c2ccc(C#N)c3ncccc23)C[C@H](CN2CC(c3cccc(N4CCNCC4)c3)C2)O1` [Example 4, 5-[(2R,6S)-2-methyl-6-[[3-(3-piperazin-1-ylphenyl)azetidin-1-yl]methyl]morpholin-4-yl]quinoline-8-carbonitrile], the IC50 was 68 nM.

As to `[2H]c1ccc2c(N3C[C@H](CN4CCN(c5ccc(N6C[C@H](N)[C@@H](F)C6)nc5)CC4)O[C@H](C)C3)ccc(C#N)c2n1` [Example 150, 5-[(2S,6R)-2-[[4-[6-[(3S,4S)-3-amino-4-fluoro-pyrrolidin-1-yl]-3-pyridyl]piperazin-1-yl]methyl]-6-methyl-morpholin-4-yl]-2-deuterio-quinoline-8-carbonitrile], the IC50 worked out at 175 nM.

With `C[C@@H]1CN(c2ccc(C#N)n3ncc(F)c23)C[C@H](CN2CCN(c3ccc(N4CC(C)(N)C4)nc3)CC2)O1` [Example 154, 4-[(2S,6R)-2-[[4-[6-(3-amino-3-methyl-azetidin-1-yl)-3-pyridyl]piperazin-1-yl]methyl]-6-methyl-morpholin-4-yl]-3-fluoro-pyrazolo[1,5-a]pyridine-7-carbonitrile], the IC50 stood at 112 nM.

In the case of `CO[C@@H]1CN(c2ccc(C3CN(C[C@H]4CN(c5ccc(C#N)n6ncc(F)c56)C[C@@H](C)O4)C3)cn2)C[C@H]1N` [Example 164, 4-[(2S,6R)-2-[[3-[6-[(3R,4R)-3-amino-4-methoxy-pyrrolidin-1-yl]-3-pyridyl]azetidin-1-yl]methyl]-6-methyl-morpholin-4-yl]-3-fluoro-pyrazolo[1,5-a]pyridine-7-carbonitrile], the IC50 was 86 nM.

Take `CO[C@@H]1CN(c2cc(C)nc(N3CCN(C[C@H]4CN(c5ccc(C#N)c6nccnc56)C[C@@H](C)O4)CC3)n2)C[C@H]1N` [Example 121, 8-[(2S,6R)-2-[[4-[4-[(3R,4R)-3-amino-4-methoxy-pyrrolidin-1-yl]-6-methyl-pyrimidin-2-yl]piperazin-1-yl]methyl]-6-methyl-morpholin-4-yl]quinoxaline-5-carbonitrile]: the IC50 came to 44 nM.

`C[C@@H]1CN(c2ccc(C#N)c3nccnc23)C[C@H](CN2CCN(c3ccnc(N4CC[C@H](N)[C@H](F)C4)n3)CC2)O1` [Example 111, 8-[(2S,6R)-2-[[4-[2-[(3R,4S)-4-amino-3-fluoro-1-piperidyl]pyrimidin-4-yl]piperazin-1-yl]methyl]-6-methyl-morpholin-4-yl]quinoxaline-5-carbonitrile]: the IC50 came to 37 nM.
